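Method: 48-hour compound exposure of cells in 96-well plates, five concentrations, linear interpolation of endpoints. At the GI50, growth is halved.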 Active and inactive are the calls of the source. Cut-off read from the data, not from the text of the source: active = GI50 up to about 1.1 µM and inactive = higher.
Key:
Assay in all cases: inhibition of tumour cell growth, NCI panel, 48 h
[1] = system: ACHN
[2] = system: CAKI-1
[3] = system: COLO 205
[4] = system: HCC 2998
[5] = system: KM12
[6] = system: LOX IMVI
[7] = system: M14
[8] = system: MCF7
[9] = system: NCI-H226
[10] = system: NCI-H23
[11] = system: OVCAR-4
[12] = system: OVCAR-8
[13] = system: RXF 393
[14] = system: SF-268
[15] = system: SR
[16] = system: SW-620
[17] = system: TK-10
[18] = system: U-251
[19] = system: UACC-257
[20] = system: UO-31

Structure (SMILES) | GI50 [1] | GI50 [2] | GI50 [3] | GI50 [4] | GI50 [5] | GI50 [6] | GI50 [7] | GI50 [8] | GI50 [9] | GI50 [10] | GI50 [11] | GI50 [12] | GI50 [13] | GI50 [14] | GI50 [15] | GI50 [16] | GI50 [17] | GI50 [18] | GI50 [19] | GI50 [20]
Nc1ccc(Oc2ccc(C3(c4ccc(Oc5ccc(N)c(O)c5)cc4)C4CC5C6CC7CC5C3C(C7)C6C4)cc2)cc1O | 1.75 µM (inactive) | 2.49 µM (inactive) | 2.37 µM (inactive) | 1.85 µM (inactive) | 1.86 µM (inactive) | 2.1 µM (inactive) | 1.45 µM (inactive) | 1.69 µM (inactive) | 2.72 µM (inactive) | 2.47 µM (inactive) | 2.35 µM (inactive) | 1.8 µM (inactive) | 1.7 µM (inactive) | 2.72 µM (inactive) | 2.25 µM (inactive) | 2.18 µM (inactive) | 3.15 µM (inactive) | 1.81 µM (inactive) | 2.5 µM (inactive) | 2.04 µM (inactive)
CCOP(=O)(OCC)[C@H](O)c1ccsc1 | > 100 µM (inactive) | > 100 µM (inactive) | > 100 µM (inactive) | > 100 µM (inactive) | > 100 µM (inactive) | > 100 µM (inactive) | > 100 µM (inactive) | > 100 µM (inactive) | > 100 µM (inactive) | > 100 µM (inactive) | > 100 µM (inactive) | > 100 µM (inactive) | > 100 µM (inactive) | > 100 µM (inactive) | > 100 µM (inactive) | > 100 µM (inactive) | > 100 µM (inactive) | > 100 µM (inactive) | > 100 µM (inactive) | > 100 µM (inactive)
CCOC(=O)Cn1nnc2ccc(Nc3nc4ccccc4nc3-c3ccccc3)cc21 | > 100 µM (inactive) | > 100 µM (inactive) | > 100 µM (inactive) | 17.3 µM (inactive) | > 100 µM (inactive) | > 100 µM (inactive) | 95.5 µM (inactive) | > 100 µM (inactive) | > 100 µM (inactive) | > 100 µM (inactive) | 68.9 µM (inactive) | > 100 µM (inactive) | > 100 µM (inactive) | 65.5 µM (inactive) | > 100 µM (inactive) | > 100 µM (inactive) | 25.4 µM (inactive) | 71.4 µM (inactive) | 70.5 µM (inactive) | 4.72 µM (inactive)
Cc1cc2nc(-c3c(F)cccc3F)n(Cc3c(F)cccc3F)c2cc1C | 14.3 µM (inactive) | 15.2 µM (inactive) | 15.2 µM (inactive) | 9.71 µM (inactive) | 14.8 µM (inactive) | 14.3 µM (inactive) | 12.2 µM (inactive) | 15.2 µM (inactive) | 15.7 µM (inactive) | 19.6 µM (inactive) | 15 µM (inactive) | 13.5 µM (inactive) | 23.2 µM (inactive) | 18.8 µM (inactive) | 11.3 µM (inactive) | 16.3 µM (inactive) | 29.4 µM (inactive) | 11.1 µM (inactive) | 16.1 µM (inactive) | 11.1 µM (inactive)
CC1(C)CCCCCCC2OC2CCCCCC(C)(C)C1=O (stereo not given) | 30.8 µM (inactive) | 20.5 µM (inactive) | 14.4 µM (inactive) | 40.6 µM (inactive) | 27.8 µM (inactive) | > 67.8 µM (inactive) | 32.8 µM (inactive) | 26.4 µM (inactive) | > 56.4 µM (inactive) | 57.7 µM (inactive) | 46.2 µM (inactive) | 44.4 µM (inactive) | 20.1 µM (inactive) | 50.2 µM (inactive) | 27.5 µM (inactive) | 52.4 µM (inactive) | > 100 µM (inactive) | 24.3 µM (inactive) | 30.7 µM (inactive) | 25.5 µM (inactive)
CC(C)SC1SCC2C(=O)N(C)C3(CC3C)C(=O)OCC(NC(=O)c3nc4ccccc4cc3O)C(=O)NC(C)C(=O)N(C)C1C(=O)N(C)C1(CC1C)C(=O)OCC(NC(=O)c1nc3ccccc3cc1O)C(=O)NC(C)C(=O)N2C (stereo not given) | < 0.0001 µM (active) | < 0.0001 µM (active) | < 0.0001 µM (active) | < 0.0001 µM (active) | < 0.0001 µM (active) | < 0.0001 µM (active) | < 0.0001 µM (active) | < 0.0001 µM (active) | < 0.0001 µM (active) | < 0.0001 µM (active) | < 0.0001 µM (active) | < 0.0001 µM (active) | < 0.0001 µM (active) | < 0.0001 µM (active) | < 0.0001 µM (active) | < 0.0001 µM (active) | < 0.0001 µM (active) | < 0.0001 µM (active) | < 0.0001 µM (active) | < 0.0001 µM (active)
CCOC(=O)N1CCN(c2nc(C)n(-c3ccccc3)c(=S)c2C#N)CC1 | > 65 µM (inactive) | > 66.4 µM (inactive) | > 100 µM (inactive) | > 100 µM (inactive) | > 83.8 µM (inactive) | > 61.9 µM (inactive) | > 91 µM (inactive) | > 48.9 µM (inactive) | > 61.8 µM (inactive) | > 54 µM (inactive) | 44.1 µM (inactive) | 50.2 µM (inactive) | > 95.9 µM (inactive) | 63.1 µM (inactive) | > 100 µM (inactive) | > 63.4 µM (inactive) | > 81.1 µM (inactive) | 75.3 µM (inactive) | > 86.9 µM (inactive) | > 48 µM (inactive)
CC(C)=CCC[C@@H](C)C1=C(O)C(=O)C(C)=C(Nc2ccccc2)C1=O | 13.5 µM (inactive) | 15.1 µM (inactive) | 22.6 µM (inactive) | 45.1 µM (inactive) | 22.8 µM (inactive) | 20.6 µM (inactive) | 14.9 µM (inactive) | 24.5 µM (inactive) | 26.7 µM (inactive) | 24.9 µM (inactive) | 19.3 µM (inactive) | 9.18 µM (inactive) | 19.2 µM (inactive) | 19.8 µM (inactive) | 28 µM (inactive) | 22.8 µM (inactive) | 29 µM (inactive) | 12.5 µM (inactive) | 28.1 µM (inactive) | 14.5 µM (inactive)
OC1(c2ccc(Cl)cc2)c2ccccc2-c2nc3ccccc3n21 (stereo not given) | > 100 µM (inactive) | > 100 µM (inactive) | > 100 µM (inactive) | 74 µM (inactive) | > 100 µM (inactive) | > 100 µM (inactive) | > 100 µM (inactive) | 95.3 µM (inactive) | 45.9 µM (inactive) | 89.3 µM (inactive) | > 100 µM (inactive) | 82.8 µM (inactive) | 29.2 µM (inactive) | > 100 µM (inactive) | 74.5 µM (inactive) | > 100 µM (inactive) | > 100 µM (inactive) | > 100 µM (inactive) | > 100 µM (inactive) | > 100 µM (inactive)
